In ChEMBL document CHEMBL5113460, “Discovery of dual inhibitors of topoisomerase I and Cyclooxygenase-2 for colon cancer therapy” (Eur J Med Chem, 2022):
Active and inactive are the calls of the source. No cut-off for these calls is given here.

Legend:
[1] = system: HT-29; test: Induction of apoptosis in human HT-29 cells assessed as reduction in mitochondrial membrane potential at 2 to 8 uM by TMRE staining based flow cytometry; assay type: functional, cell-based; conditions: dose 2-8 µM
[2] = biological target: T1, DNA topoisomerase 1 (Homo sapiens) (UniProt P11387); test: Poison activity at topoisomerase 1 (unknown origin) assessed as s increase in nicked DNA formation at 1 mM using supercoiled plasmid DNA as substrate at 200 to 400 uM incubated for 35 mins by agarose gel electrophoresis
T1 sequence (whole entry): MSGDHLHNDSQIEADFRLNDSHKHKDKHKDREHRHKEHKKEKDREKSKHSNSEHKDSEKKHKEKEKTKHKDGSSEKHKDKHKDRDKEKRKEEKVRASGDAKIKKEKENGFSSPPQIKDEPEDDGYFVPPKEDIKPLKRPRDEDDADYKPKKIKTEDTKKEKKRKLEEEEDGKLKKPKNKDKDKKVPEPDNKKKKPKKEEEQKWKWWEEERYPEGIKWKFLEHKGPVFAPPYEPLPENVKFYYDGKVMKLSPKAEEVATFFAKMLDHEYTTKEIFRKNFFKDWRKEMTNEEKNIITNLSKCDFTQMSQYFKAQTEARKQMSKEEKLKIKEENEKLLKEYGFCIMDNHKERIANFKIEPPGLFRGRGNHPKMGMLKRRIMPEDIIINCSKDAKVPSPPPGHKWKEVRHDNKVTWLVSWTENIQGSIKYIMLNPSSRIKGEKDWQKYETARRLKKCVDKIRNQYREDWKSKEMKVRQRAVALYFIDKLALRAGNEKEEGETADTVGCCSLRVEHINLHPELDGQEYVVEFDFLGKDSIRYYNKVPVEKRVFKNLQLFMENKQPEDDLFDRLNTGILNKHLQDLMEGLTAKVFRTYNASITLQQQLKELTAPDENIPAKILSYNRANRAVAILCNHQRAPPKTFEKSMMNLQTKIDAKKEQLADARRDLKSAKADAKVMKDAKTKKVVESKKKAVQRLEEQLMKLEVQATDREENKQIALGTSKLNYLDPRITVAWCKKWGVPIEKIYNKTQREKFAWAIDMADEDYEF

[3] = system: RKO; test: Induction of DNA damage in human RKO cells assessed as increase in tail length at 3 to 9 uM incubated for 24 hrs by Comet assay; assay type: functional, cell-based; conditions: dose 3-9 µM
[4] = system: HT-29; test: Induction of cell cycle arrest in human HT-29 cells assessed as ratio of G1/G0 phase at 2 to 8 uM incubated for 24 hrs by flow cytometry (Rvb= 55.20%); assay type: functional; conditions: dose 2-8 µM
[5] = system: RKO; test: Induction of cell cycle arrest in human RKO cells assessed as ratio of G1/G0 phase at 2 to 8 uM incubated for 24 hrs by flow cytometry (Rvb= 37.57%); assay type: functional; conditions: dose 2-8 µM
[6] = system: HT-29; test: Antiproliferative activity against human HT-29 cells assessed as inhibition of cell colonies at 0.25 to 1 uM incubated for 7 days by crystal violet staining based microscopic analysis; assay type: functional; conditions: dose 0.25-1 µM, time 7.0 day
[7] = system: HT-29; test: Induction of apoptosis in human HT-29 cells assessed as late apoptotic cells at 4 uM incubated for 24 hr by Annexin-V-FITC/PI staining based flow cytometry (Rvb=8.60%); assay type: functional
[8] = system: HT-29; test: Induction of apoptosis in human HT-29 cells assessed as late apoptotic cells at 8 uM incubated for 24 hr by Annexin-V-FITC/PI staining based flow cytometry (Rvb=8.60%); assay type: functional
[9] = system: HT-29; test: Induction of apoptosis in human HT-29 cells assessed as necrotic cells at 2 uM incubated for 24 hr by Annexin-V-FITC/PI staining based flow cytometry (Rvb=1.67%); assay type: functional
[10] = system: HT-29; test: Induction of apoptosis in human HT-29 cells assessed as necrotic cells at 8 uM incubated for 24 hr by Annexin-V-FITC/PI staining based flow cytometry (Rvb=1.67%); assay type: functional
[11] = system: RKO; test: Induction of apoptosis in human RKO cells assessed as late apoptotic cells at 3 uM incubated for 24 hr by Annexin-V-FITC/PI staining based flow cytometry (Rvb= 4.49%); assay type: functional
[12] = system: RKO; test: Induction of apoptosis in human RKO cells assessed as necrotic cells at 9 uM incubated for 24 hr by Annexin-V-FITC/PI staining based flow cytometry (Rvb= 0.30%); assay type: functional
[13] = system: HT-29; test: Induction of apoptosis in human HT-29 cells assessed as increase in intracellular ROS level at 2 to 8 uM for 24 hrs by DCFH-DA staining-based flow cytometric analysis; assay type: functional, cell-based; conditions: dose 2-8 µM
[14] = system: RKO; test: Induction of apoptosis in human RKO cells assessed as increase in intracellular ROS level at 3 to 9 uM for 24 hrs by DCFH-DA staining-based flow cytometric analysis; assay type: functional, cell-based; conditions: dose 3-9 µM
[15] = system: HT-29; test: Induction of apoptosis in human HT-29 cells assessed as increase in cleaved caspase-9 protein level at 2 to 8 uM incubated for 24 hrs by western blot analysis; assay type: functional, cell-based; conditions: dose 2-8 µM
[16] = system: HT-29; test: Induction of apoptosis in human HT-29 cells assessed as decrease in Bcl-2 protein level at 2 to 8 uM incubated for 24 hrs by western blot analysis; assay type: functional, cell-based; conditions: dose 2-8 µM
[17] = system: HT-29; test: Inhibition of NF-kappaB signalling pathway in human HT-29 cells assessed as decrease in phosphorylated NF-kappaB p65 level at 2 to 8 uM incubated for 24 hrs by Western blot analysis; assay type: cell-based; conditions: dose 2-8 µM
[18] = Cmax in Sprague-Dawley rat at 30 mg/kg, po and measured upto 12 hrs by LC-MS analysis; assay type: ADME, organism-based; parameters: time < 12 hrs, dose 30 mg/kg, route po; conditions: in vivo
[19] = Tmax in Sprague-Dawley rat at 100 mg/kg, po and measured upto 24 hrs by LC-MS analysis; assay type: ADME, organism-based; conditions: in vivo
[20] = system: HT-29; test: Antitumor activity against human HT-29 cells xenografted in BALB/c mouse assessed as inhibition of tumor growth at 15 mg/kg, ip bid and measured after 14 days by vernier caliper method; assay type: functional; conditions: HT-29, 336 h, time 14 day, read-out: TGI
[21] = system: HT-29; test: Antitumor activity against human HT-29 cells xenografted in BALB/c mouse assessed as reduction of tumor weight at 30 mg/kg, ip bid and measured after 14 days; assay type: functional, organism-based; conditions: time 14.0 day
[22] = system: HT-29; test: Antitumor activity against human HT-29 cells xenografted in BALB/c mouse assessed as tumor necrosis at 15 to 30 mg/kg, ip bid for 14 days by hematoxylin-eosin staining analysis; assay type: functional, organism-based; conditions: dose 15-30 mg/kg, time 14.0 day

With `Cc1c(Cl)cccc1Nc1ccccc1C(=O)Nc1ccc(N2CCNCC2)cc1` the Activity [1] was “Active”, the Activity [2] was “Active” and the Activity [3] was “Active”. The Activity [4] was 65.17%, the Activity [5] was 76.99% and the Activity [6] was “Active”. For the same compound, the Activity [7] was 14%, the Activity [8] was 26.1% and the Activity [9] was 1.49%. It also gave an Activity [10] of 1.05%, an Activity [11] of 4.66% and an Activity [12] of 0.59%. The Activity [13] was “Active”, the Activity [14] was “Active” and the Activity [15] was “Active”. The Activity [16] was “Active”, the inhibition [17] was “Active” and the Cmax [18] was 1600 ng/mL. For the same compound, the Tmax [19] was 3.67 h, the inhibition in vivo at 15 mg/kg [20] was 40.7% and the Activity [21] was “Active”. The Activity [22] was “Active”.
